Values after ≈ are worked out from the molar mass of the structure shown.
Tests used:
Assay type in all cases: functional
Escherichia coli [1] = test: Antimicrobial activity against Escherichia coli K-12 3-AG300 harboring AcrB-F628F mutant gene
Escherichia coli [2] = test: Ratio of MIC for Escherichia coli K-12 3-AG300 harboring acrB::rpsLneo mutant gene to MIC for Escherichia coli K-12 3-AG300
Escherichia coli [3] = test: Antimicrobial activity against Escherichia coli K-12 3-AG300 harboring AcrB-615-628MexB mutant gene
Escherichia coli [4] = test: Antimicrobial activity against Escherichia coli K-12 3-AG300 harboring acrB::rpsLneo mutant gene
Escherichia coli [5] = test: Antimicrobial activity against Escherichia coli K-12 3-AG300 harboring AcrB-615-628MexB-S623N mutant gene
Escherichia coli [6] = test: Antimicrobial activity against Escherichia coli K-12 3-AG300 harboring AcrB-615-628MexB-N616 mutant gene
Escherichia coli [7] = test: Ratio of MIC for Escherichia coli K-12 3-AG300 harboring AcrB-G616N mutant gene to MIC for Escherichia coli K-12 3-AG300
Escherichia coli [8] = test: Antimicrobial activity against Escherichia coli K-12 3-AG300 harboring AcrB-615-628MexB-M626I mutant gene
Escherichia coli [9] = test: Ratio of MIC for Escherichia coli K-12 3-AG300 harboring AcrB-615-628MexB mutant gene to MIC for Escherichia coli K-12 3-AG300
Escherichia coli [10] = test: Antimicrobial activity against Escherichia coli K-12 3-AG300 harboring AcrB-I626M mutant gene
Escherichia coli [11] = test: Ratio of MIC for Escherichia coli K-12 3-AG300 harboring AcrB-615-628MexB-M626I mutant gene to MIC for Escherichia coli K-12 3-AG300
Escherichia coli [12] = test: Antimicrobial activity against Escherichia coli K-12 3-AG300 harboring AcrB-G616N mutant gene
Escherichia coli [13] = test: Antimicrobial activity against Escherichia coli K-12 3-AG300 harboring AcrB-N623S-Q624S mutant gene

## CCOc1ccc(-c2nc3cc(-c4nc5cc(N6CCN(C)CC6)ccc5[nH]4)ccc3[nH]2)cc1
Escherichia coli [1]
  MIC: 4 µg/mL (≈ 8.84 µM)
Escherichia coli [2]
  Ratio: 4
Escherichia coli [3]
  MIC: 4 µg/mL (≈ 8.84 µM)
Escherichia coli [4]
  MIC: 0.125 µg/mL (≈ 0.276 µM)

## CC[C@H]1OC(=O)[C@H](C)[C@@H](O[C@H]2C[C@@](C)(OC)[C@@H](O)[C@H](C)O2)[C@H](C)[C@@H](O[C@@H]2O[C@H](C)C[C@H](N(C)C)[C@H]2O)[C@](C)(O)C[C@@H](C)CN(C)[C@H](C)[C@@H](O)[C@]1(C)O [AZITHROMYCIN]
Escherichia coli [1]
  MIC: 64 µg/mL (≈ 85.4 µM)
Escherichia coli [5]
  MIC: 16 µg/mL (≈ 21.4 µM)
Escherichia coli [6]
  MIC: 64 µg/mL (≈ 85.4 µM)
Escherichia coli [7]
  Ratio: 4
Escherichia coli [2]
  Ratio: 4
Escherichia coli [3]
  MIC: 16 µg/mL (≈ 21.4 µM)
Escherichia coli [8]
  MIC: 8 µg/mL (≈ 10.7 µM)
Escherichia coli [4]
  MIC: 0.5 µg/mL (≈ 0.668 µM)
Escherichia coli [9]
  Ratio: 4
Escherichia coli [10]
  MIC: 32 µg/mL (≈ 42.7 µM)
Escherichia coli [11]
  Ratio: 4
Escherichia coli [12]
  MIC: 16 µg/mL (≈ 21.4 µM)

## CCBr [BROMOETHANE]
Escherichia coli [1]
  MIC: 512 µg/mL (≈ 4700 µM)
Escherichia coli [5]
  MIC: 512 µg/mL (≈ 4700 µM)
Escherichia coli [6]
  MIC: 512 µg/mL (≈ 4700 µM)
Escherichia coli [2]
  Ratio: 4
Escherichia coli [3]
  MIC: 512 µg/mL (≈ 4700 µM)
Escherichia coli [8]
  MIC: 512 µg/mL (≈ 4700 µM)
Escherichia coli [4]
  MIC: 16 µg/mL (≈ 147 µM)
Escherichia coli [10]
  MIC: 1020 µg/mL (≈ 9400 µM)
Escherichia coli [13]
  MIC: 1020 µg/mL (≈ 9400 µM)
Escherichia coli [12]
  MIC: 1020 µg/mL (≈ 9400 µM)

## O=C(N[C@H](CO)[C@H](O)c1ccc([N+](=O)[O-])cc1)C(Cl)Cl [CHLORAMPHENICOL]
Escherichia coli [1]
  MIC: 8 µg/mL (≈ 24.8 µM)
Escherichia coli [6]
  MIC: 8 µg/mL (≈ 24.8 µM)
Escherichia coli [8]
  MIC: 8 µg/mL (≈ 24.8 µM)
Escherichia coli [4]
  MIC: 1 µg/mL (≈ 3.09 µM)
Escherichia coli [10]
  MIC: 8 µg/mL (≈ 24.8 µM)
Escherichia coli [13]
  MIC: 8 µg/mL (≈ 24.8 µM)
Escherichia coli [12]
  MIC: 8 µg/mL (≈ 24.8 µM)

## CC[C@H]1OC(=O)[C@H](C)[C@@H](O[C@H]2C[C@@](C)(OC)[C@@H](O)[C@H](C)O2)[C@H](C)[C@@H](O[C@@H]2O[C@H](C)C[C@H](N(C)C)[C@H]2O)[C@](C)(OC)C[C@@H](C)C(=O)[C@H](C)[C@@H](O)[C@]1(C)O [CLARITHROMYCIN]
Escherichia coli [1]
  MIC: 512 µg/mL (≈ 685 µM)
Escherichia coli [5]
  MIC: 128 µg/mL (≈ 171 µM)
Escherichia coli [6]
  MIC: 512 µg/mL (≈ 685 µM)
Escherichia coli [7]
  Ratio: 4
Escherichia coli [2]
  Ratio: 4
Escherichia coli [3]
  MIC: 64 µg/mL (≈ 85.6 µM)
Escherichia coli [8]
  MIC: 64 µg/mL (≈ 85.6 µM)
Escherichia coli [4]
  MIC: 4 µg/mL (≈ 5.35 µM)
Escherichia coli [9]
  Ratio: 4
Escherichia coli [10]
  MIC: 512 µg/mL (≈ 685 µM)
Escherichia coli [13]
  MIC: 512 µg/mL (≈ 685 µM)
Escherichia coli [11]
  Ratio: 4
Escherichia coli [12]
  MIC: 128 µg/mL (≈ 171 µM)

## CCC[C@@H]1C[C@@H](C(=O)N[C@@H]([C@H]2O[C@H](SC)[C@H](O)[C@@H](O)[C@H]2O)[C@H](C)Cl)N(C)C1 [CLINDAMYCIN]
Escherichia coli [1]
  MIC: 256 µg/mL (≈ 602 µM)
Escherichia coli [2]
  Ratio: 4
Escherichia coli [3]
  MIC: 256 µg/mL (≈ 602 µM)
Escherichia coli [4]
  MIC: 4 µg/mL (≈ 9.41 µM)

## CC[C@H]1OC(=O)[C@H](C)[C@@H](O[C@H]2C[C@@](C)(OC)[C@@H](O)[C@H](C)O2)[C@H](C)[C@@H](O[C@@H]2O[C@H](C)C[C@H](N(C)C)[C@H]2O)[C@](C)(O)C[C@@H](C)C(=O)[C@H](C)[C@@H](O)[C@]1(C)O [ERYTHROMYCIN]
Escherichia coli [1]
  MIC: 512 µg/mL (≈ 698 µM)
Escherichia coli [5]
  MIC: 256 µg/mL (≈ 349 µM)
Escherichia coli [6]
  MIC: 256 µg/mL (≈ 349 µM)
Escherichia coli [7]
  Ratio: 4
Escherichia coli [2]
  Ratio: 4
Escherichia coli [3]
  MIC: 128 µg/mL (≈ 174 µM)
Escherichia coli [8]
  MIC: 128 µg/mL (≈ 174 µM)
Escherichia coli [4]
  MIC: 4 µg/mL (≈ 5.45 µM)
Escherichia coli [9]
  Ratio: 4
Escherichia coli [10]
  MIC: 512 µg/mL (≈ 698 µM)
Escherichia coli [11]
  Ratio: 4
Escherichia coli [12]
  MIC: 128 µg/mL (≈ 174 µM)

## CC(=O)NC[C@H]1CN(c2ccc(N3CCOCC3)c(F)c2)C(=O)O1 [LINEZOLID]
Escherichia coli [1]
  MIC: 512 µg/mL (≈ 1520 µM)
Escherichia coli [5]
  MIC: 1020 µg/mL (≈ 3040 µM)
Escherichia coli [6]
  MIC: 1020 µg/mL (≈ 3040 µM)
Escherichia coli [2]
  Ratio: 4
Escherichia coli [3]
  MIC: 1020 µg/mL (≈ 3040 µM)
Escherichia coli [8]
  MIC: 1020 µg/mL (≈ 3040 µM)
Escherichia coli [4]
  MIC: 16 µg/mL (≈ 47.4 µM)
Escherichia coli [10]
  MIC: 512 µg/mL (≈ 1520 µM)
Escherichia coli [13]
  MIC: 512 µg/mL (≈ 1520 µM)
Escherichia coli [12]
  MIC: 512 µg/mL (≈ 1520 µM)

## CN(C)c1ccc(O)c2c1C[C@H]1C[C@H]3[C@H](N(C)C)C(O)=C(C(N)=O)C(=O)[C@@]3(O)C(O)=C1C2=O [MINOCYCLINE]
Escherichia coli [1]
  MIC: 4 µg/mL (≈ 8.74 µM)
Escherichia coli [5]
  MIC: 2 µg/mL (≈ 4.37 µM)
Escherichia coli [6]
  MIC: 2 µg/mL (≈ 4.37 µM)
Escherichia coli [2]
  Ratio: 4
Escherichia coli [3]
  MIC: 2 µg/mL (≈ 4.37 µM)
Escherichia coli [8]
  MIC: 4 µg/mL (≈ 8.74 µM)
Escherichia coli [4]
  MIC: 0.125 µg/mL (≈ 0.273 µM)
Escherichia coli [10]
  MIC: 4 µg/mL (≈ 8.74 µM)
Escherichia coli [13]
  MIC: 4 µg/mL (≈ 8.74 µM)
Escherichia coli [12]
  MIC: 4 µg/mL (≈ 8.74 µM)

## CO[C@@H]1[C@@H](OC(N)=O)[C@@H](O)[C@H](Oc2ccc3c(O)c(NC(=O)c4ccc(O)c(CC=C(C)C)c4)c(=O)oc3c2C)OC1(C)C [NOVOBIOCIN]
Escherichia coli [1]
  MIC: 512 µg/mL (≈ 836 µM)
Escherichia coli [5]
  MIC: 1020 µg/mL (≈ 1670 µM)
Escherichia coli [6]
  MIC: 512 µg/mL (≈ 836 µM)
Escherichia coli [2]
  Ratio: 4
Escherichia coli [3]
  MIC: 512 µg/mL (≈ 836 µM)
Escherichia coli [8]
  MIC: 512 µg/mL (≈ 836 µM)
Escherichia coli [4]
  MIC: 4 µg/mL (≈ 6.53 µM)
Escherichia coli [10]
  MIC: 512 µg/mL (≈ 836 µM)
Escherichia coli [13]
  MIC: 512 µg/mL (≈ 836 µM)
Escherichia coli [12]
  MIC: 512 µg/mL (≈ 836 µM)

## Cc1onc(-c2ccccc2)c1C(=O)N[C@@H]1C(=O)N2[C@@H]1SC(C)(C)[C@@H]2C(=O)O [OXACILLIN]
Escherichia coli [1]
  MIC: 512 µg/mL (≈ 1280 µM)
Escherichia coli [5]
  MIC: 512 µg/mL (≈ 1280 µM)
Escherichia coli [6]
  MIC: 256 µg/mL (≈ 638 µM)
Escherichia coli [2]
  Ratio: 4
Escherichia coli [3]
  MIC: 256 µg/mL (≈ 638 µM)
Escherichia coli [8]
  MIC: 256 µg/mL (≈ 638 µM)
Escherichia coli [4]
  MIC: 0.5 µg/mL (≈ 1.25 µM)
Escherichia coli [10]
  MIC: 512 µg/mL (≈ 1280 µM)
Escherichia coli [13]
  MIC: 256 µg/mL (≈ 638 µM)
Escherichia coli [12]
  MIC: 256 µg/mL (≈ 638 µM)
